From patent publication US11701372B2, “Inhalation formulations of 1'-cyano substituted carba-nucleoside analogs” (priority 2020, dated 2023)
Read-outs that look alike come from different tables or passages of the source. Marks after values point to notes of the source that are not given here.

Experiments:
in vivo = settings: both, monkey, 0.168 mg/kg
Protocol: (§1) The average deposited dose was calculated at 0.168 mg/kg and 0.536 mg/kg, respectively. Plasma, peripheral blood mononuclear cells (PBMCs), trachea, bronchi, lung lobe, liver, kidney, nasal mucosa and nasopharyngeal mucosa samples were collected in this study.

[1] = Plasma PK of Formula Ia and metabolites after inhalation in African Green Monkeys; settings: both, monkey, in vivo
Protocol: as §1

[2] = Respiratory tissue concentrations after inhalation in African Green Monkeys; settings: 24 hours
Protocol: as §1

[3] = both, monkey, in vivo, 0.168 mg/kg
Protocol: as §1

[4] = PBMC concentrations of metabolites after inhalation in African Green Monkeys; settings: both, monkey, in vivo
Protocol: as §1

[5] = type: physicochemical
Protocol: Samples for freeze-thaw cycling were also prepared and tested. For each condition, the physical stability was measured as % LS (label strength) and compared to % LS at T=0. […] The 7.5% SBECD formulation is also stable to freeze/thaw cycling (three cycles performed).

[6] = Characterisation of milled suspension formulations (osmolarity, pH, particle size); type: physicochemical; settings: 0.5% w/v poloxamer 237, 0.9% sodium chloride
Protocol: The vial capped, vortexed briefly, and then placed in a Bertin Instruments Precellys® Evolution blender. The blender was used to wet mill the mixture for 15×30 second cycles, with 120 second rest time between cycles. The blender speed was 7,200 rpm and cooling set was set to high. After milling, the milled suspension was separated from the beads by withdrawing the suspension from the vial using a syringe with a 1.5'' 25G needle. The recovered volume of the concentrated suspension was noted as 2.97 mL, and the concentration was measured as 25.8 mg/mL. The suspension was diluted with 2.14 mL of vehicle to obtain the target concentration of 15 mg/mL. […] The chiller set to 30° F., pump set to 100 rpm, and agitator set to 3000 rpm. The pump was primed with 100 mL of vehicle, and the first 80 mL of flowthough from priming was sent to waste. The mill was then set to recirculate as feeding continued with the addition of 150 mL of pre-mill formulation intermediate, followed by 25 mL of vehicle rinse. The formulation was allowed to recirculate though the mill for 1 hr, after which the flow was directed to a collection bottle. After 100 mL of concentrated suspension formulation was collected in the bottle, a vehicle chase was fed into the mill. Collection was stopped when the recovered volume reached 250 mL.

[7] = type: physicochemical; remark: listed apart in the source
Protocol: For each conditions, the physical stability was measured as % LS and compared to % LS at T=0.

[8] = Nebulizer performance (PARI LC Sprint jet nebulizer); type: physicochemical; settings: 5 mg/mL Formula Ia, 15% w/v SBECD, 8 mL charge; collected aerosol and residual solution
SARS-CoV2-Nano viruses = assay: SARS-CoV-2 antiviral screening (A549-hACE2 cells, Nano luciferase); type: cell-based; settings: Severe acute respiratory syndrome coronavirus 2, 48 h
[9] = inhaled or intranasal, 0.168 mg/kg
[10] = inhaled or intranasal, 0.536 mg/kg
[11] = 7.5% SBECD w/v, 2-8° C., 24 h timepoint
[12] = 7.5% SBECD w/v, RT, 24 h timepoint
[13] = 15 mg/mL in water with 0.1% w/v HPMC

Structure (SMILES): N#C[C@@]1(c2ccc3c(N)ncnn23)O[C@H](CO)[C@@H](O)[C@H]1O [Compound A]
- concentration at 24 h (in vivo): 302 ± 44 nM
- concentration at 0.25 h ([1]; 0.168 mg/kg): 3 ± 1 nM
- concentration at 1 h ([1]; 0.168 mg/kg): 31 ± 7 nM
- concentration at 2 h ([1]; 0.168 mg/kg): 25 ± 5 nM
- concentration at 24 h ([1]; 0.168 mg/kg): 2 nM
- concentration at 0.75 h ([1]; 0.536 mg/kg): 29 ± 8 nM
- concentration at 1.52 h ([1]; 0.536 mg/kg): 58 ± 3 nM
- concentration at 2 h ([1]; 0.536 mg/kg): 71 ± 11 nM
- concentration at 4 h ([1]; 0.536 mg/kg): 43 ± 9 nM
- concentration at 8 h ([1]; 0.536 mg/kg): 22 ± 5 nM
- concentration at 24 h ([1]; 0.536 mg/kg): 5 ± 1 nM
- AUC(0-t) [1, 9]: 0.191 ± 0.03 µM·h
- Cmax [1, 9]: 31 ± 7 nM
- half-life [1, 9]: 7.58 ± 1.03 h
- AUC(0-t) [1, 10]: 0.539 ± 0.076 µM·h
- half-life [1, 10]: 7.1 ± 0.36 h
- Metabolite Concentrations ([2]; Lower Lung Lobe, 0.168 mg/kg inhaled deposited dose, LOQ for A and C 0.154 nmol/g tissue): BLQ
- Metabolite Concentrations ([2]; Lower Lung Lobe, 0.536 mg/kg inhaled deposited dose, LLOQ for A and C 0.154 nmol/g tissue): BLQ
- Metabolite Concentrations ([2]; Upper Bronchi, 0.168 mg/kg inhaled deposited dose, LOQ for A and C 0.154 nmol/g tissue): BLQ
- Metabolite Concentrations ([2]; Upper Bronchi, 0.536 mg/kg inhaled deposited dose, LLOQ for A and C 0.154 nmol/g tissue): BLQ
- Metabolite Concentrations ([2]; Upper Trachea, 0.168 mg/kg inhaled deposited dose, LOQ for A and C 0.154 nmol/g tissue): BLQ
- Metabolite Concentrations ([2]; Upper Trachea, 0.536 mg/kg inhaled deposited dose, LLOQ for A and C 0.154 nmol/g tissue): BLQ
- mean estimated terminal elimination half-life [3]: 7.58 h
- concentration at 2 h ([4]; 0.168 mg/kg): 331 ± 92 nM
- concentration at 24 h ([4]; 0.536 mg/kg): 457 ± 130 nM

Structure (SMILES): CCC(CC)COC(=O)[C@H](C)N[P@](=O)(OC[C@H]1O[C@@](C#N)(c2ccc3c(N)ncnn23)[C@H](O)[C@@H]1O)Oc1ccccc1 [Formula Ia, (S)-2-ethylbutyl 2-(((S)-(((2R,3S,4R,5R)-5-(4-aminopyrrolo[2,1-f][1,2,4]triazin-7-yl)-5-cyano-3,4-dihydroxytetrahydrofuran-2-yl)methoxy)(phenoxy)phosphoryl)amino)propanoate]
- % LS (Initial) ([5]; 5% SBECD w/v): 101 % LS
- % LS After Stress, Hold ([5]; 5% SBECD w/v, 2-8° C. (48 h)): 101 % LS
- % LS After Stress, Hold After Seeding ([5]; 5% SBECD w/v, 2-8° C. (48 h)): 80 % LS
- % LS After Stress, Hold ([5]; 5% SBECD w/v, RT (48 h)): 101 % LS
- % LS After Stress, Hold After Seeding ([5]; 5% SBECD w/v, RT (48 h)): 68 % LS
- % LS After Stress, Freeze-thaw (3x) ([5]; 5% SBECD w/v, after seeding): 69 % LS
- % LS After Stress, Freeze-thaw (3x) ([5]; 5% SBECD w/v, without seeding): 101 % LS
- % LS (Initial) ([5]; 7.5% SBECD w/v): 101 % LS
- % LS After Stress, Hold [5, 11]: 104* % LS
- % LS After Stress, Hold After Seeding [5, 11]: 103* % LS
- % LS After Stress, Hold [5, 12]: 103* % LS
- % LS After Stress, Hold After Seeding [5, 12]: 102* % LS
- % LS After Stress, Freeze-thaw (3x) ([5]; 7.5% SBECD w/v, after seeding): 97 % LS
- % LS After Stress, Freeze-thaw (3x) ([5]; 7.5% SBECD w/v, without seeding): 99 % LS
- % LS (Initial) ([5]; 10% SBECD w/v): 101 % LS
- % LS After Stress, Hold ([5]; 10% SBECD w/v, 2-8° C. (48 h)): 101 % LS
- % LS After Stress, Hold After Seeding ([5]; 10% SBECD w/v, 2-8° C. (48 h)): 99 % LS
- % LS After Stress, Hold ([5]; 10% SBECD w/v, RT (48 h)): 101 % LS
- % LS After Stress, Hold After Seeding ([5]; 10% SBECD w/v, RT (48 h)): 98 % LS
- % LS After Stress, Freeze-thaw (3x) ([5]; 10% SBECD w/v, after seeding): 98 % LS
- % LS After Stress, Freeze-thaw (3x) ([5]; 10% SBECD w/v, without seeding): 100 % LS
- % LS (Initial) ([5]; 20% SBECD w/v): 102 % LS
- % LS After Stress, Hold ([5]; 20% SBECD w/v, 2-8° C. (48 h)): 101 % LS
- % LS After Stress, Hold After Seeding ([5]; 20% SBECD w/v, 2-8° C. (48 h)): 101 % LS
- % LS After Stress, Hold ([5]; 20% SBECD w/v, RT (48 h)): 101 % LS
- % LS After Stress, Hold After Seeding ([5]; 20% SBECD w/v, RT (48 h)): 101 % LS
- % LS After Stress, Freeze-thaw (3x) ([5]; 20% SBECD w/v, after seeding): 100 % LS
- % LS After Stress, Freeze-thaw (3x) ([5]; 20% SBECD w/v, without seeding): 100 % LS
- osmolarity [6, 13]: 285 mOsm/kg
- pH [6, 13]: 6.89
- volume mean diameter particle size [6, 13]: 3.65 μm
- particle size by polarized light microscopy ([6]; 100 mg/mL in water with 0.1% w/v HPMC): < 5 μm
- physical stability [7]: stable
- % LS T0 ([7]; pH 3.8): 99 % LS
- % LS After Stress, Hold ([7]; pH 3.8, 2-8° C. (1 wk)): 99 % LS
- % LS After Stress, Hold After Seeding ([7]; pH 3.8, 2-8° C. (1 wk)): 88 % LS
- % LS After Stress, Hold ([7]; pH 3.8, 2-8° C. (48 h)): 99 % LS
- % LS After Stress, Hold After Seeding ([7]; pH 3.8, 2-8° C. (48 h)): 99 % LS
- % LS After Stress, Hold ([7]; pH 3.8, 2-8° C. (72 h)): 99 % LS
- % LS After Stress, Hold After Seeding ([7]; pH 3.8, 2-8° C. (72 h)): 99 % LS
- % LS After Stress, Hold ([7]; pH 3.8, 2-8° C., 24 h): 100 % LS
- % LS After Stress, Hold After Seeding ([7]; pH 3.8, 2-8° C., 24 h): 100 % LS
- % LS After Stress, Freeze-thaw (3X) ([7]; pH 3.8, (+) seed): 99 % LS
- % LS After Stress, Freeze-thaw (3X) ([7]; pH 3.8, (−) seed): 99 % LS
- % LS After Stress, Hold ([7]; pH 3.8, RT (1 wk)): 99 % LS
- % LS After Stress, Hold After Seeding ([7]; pH 3.8, RT (1 wk)): 65 % LS
- % LS After Stress, Hold ([7]; pH 3.8, RT (24 h)): 100 % LS
- % LS After Stress, Hold After Seeding ([7]; pH 3.8, RT (24 h)): 99 % LS
- % LS After Stress, Hold ([7]; pH 3.8, RT (48 h)): 99 % LS
- % LS After Stress, Hold After Seeding ([7]; pH 3.8, RT (48 h)): 99 % LS
- % LS After Stress, Hold ([7]; pH 3.8, RT (72 h)): 99 % LS
- % LS After Stress, Hold After Seeding ([7]; pH 3.8, RT (72 h)): 99 % LS
- % LS T0 ([7]; pH 4.0): 100 % LS
- % LS After Stress, Hold ([7]; pH 4.0, 2-8° C. (1 wk)): 99 % LS
- % LS After Stress, Hold ([7]; pH 4.0, 2-8° C. (48 h)): 99 % LS
- % LS After Stress, Hold After Seeding ([7]; pH 4.0, 2-8° C. (48 h)): 79 % LS
- % LS After Stress, Hold ([7]; pH 4.0, 2-8° C. (72 h)): 100 % LS
- % LS After Stress, Hold After Seeding ([7]; pH 4.0, 2-8° C. (72 h)): 67 % LS
- % LS After Stress, Hold ([7]; pH 4.0, 2-8° C., 24 h): 100 % LS
- % LS After Stress, Hold After Seeding ([7]; pH 4.0, 2-8° C., 24 h): 96 % LS
- % LS After Stress, Freeze-thaw (3X) ([7]; pH 4.0, (+) seed): 99 % LS
- % LS After Stress, Freeze-thaw (3X) ([7]; pH 4.0, (−) seed): 99 % LS
- % LS After Stress, Hold ([7]; pH 4.0, RT (1 wk)): 98 % LS
- % LS After Stress, Hold ([7]; pH 4.0, RT (24 h)): 100 % LS
- % LS After Stress, Hold After Seeding ([7]; pH 4.0, RT (24 h)): 69 % LS
- % LS After Stress, Hold ([7]; pH 4.0, RT (48 h)): 99 % LS
- % LS After Stress, Hold After Seeding ([7]; pH 4.0, RT (48 h)): 60 % LS
- % LS After Stress, Hold ([7]; pH 4.0, RT (72 h)): 100 % LS
- % LS After Stress, Hold After Seeding ([7]; pH 4.0, RT (72 h)): 58 % LS
- change in % peak area for Formula Ia or its identified impurities after nebulization [8]: No significant change
- EC50 (SARS-CoV2-Nano viruses): 110 nM
